# Measurements from patent US20030104507A1, “Method for detection of ATP” (priority 2001, published 2003).
# Tested on: LucPpe2m146
# Assay: Duration of luminescence (signal stability) and effects of media and sera, DTAB, ± pyrophosphate
# Format: biochemical, Photuris pennsylvanica
# Procedure: In some embodiments, the compositions of the invention were added to intact cells to lyse them, and then ATP detected. In other embodiments, conditioned culture media were themselves assayed for ATP. However, the various components of media, such as buffers, sugars, amino acids, pH indicators, salts, etc., as well as the various factors found in serum (equine, bovine, etc.) may inhibit luciferase activity.
# The luciferase-luciferin reaction was initiated by combining 100 μl of the reagent composition composition with 100 μl cell media with serum, varying final concentrations of DTAB (as indicated below in Table Q) and 1.0 μM ATP was added to each reaction plus or minus 10 μM sodium pyrophosphate in wells of a 96-well microtiter luminometer plate; each experimental condition was prepared in triplicate. At various times after initiating the reaction, rlu values were recorded using an Orion microplate luminometer (Berthold Detection Systems; Pforzheim, Germany).
compound,measurement,setting,value
"CCCCCCCCCCCC[N+](C)(C)C.[Br-] [DTAB, dodecyltrimethylammonium bromide]",Average Relative Light Units,"0.50% DTAB, DMEM + 10% FBS + ATP, 0 min",204771 relative light units
same,Average Relative Light Units,"0.50% DTAB, DMEM + 10% FBS + ATP, 10 min",223493 relative light units
same,Average Relative Light Units,"0.50% DTAB, DMEM + 10% FBS + ATP, 30 min",187757 relative light units
same,Average Relative Light Units,"0.50% DTAB, DMEM + 10% FBS + ATP, 65 min",146766 relative light units
same,Average Relative Light Units,"0.50% DTAB, DMEM + 10% FBS + ATP, 120 min",104150 relative light units
same,Average Relative Light Units,"0.50% DTAB, DMEM + 10% FBS + ATP, 180 min",72609 relative light units
same,Average Relative Light Units,"0.50% DTAB, DMEM + 10% FBS + ATP, 325 min",32307 relative light units
same,Average Relative Light Units,"0.50% DTAB, F12/DME + 10% FBS + ATP, 0 min",13467 relative light units
same,Average Relative Light Units,"0.50% DTAB, F12/DME + 10% FBS + ATP, 10 min",13311 relative light units
same,Average Relative Light Units,"0.50% DTAB, F12/DME + 10% FBS + ATP, 30 min",11348 relative light units
same,Average Relative Light Units,"0.50% DTAB, F12/DME + 10% FBS + ATP, 65 min",9953 relative light units
same,Average Relative Light Units,"0.50% DTAB, F12/DME + 10% FBS + ATP, 120 min",8127 relative light units
same,Average Relative Light Units,"0.50% DTAB, F12/DME + 10% FBS + ATP, 180 min",6538 relative light units
same,Average Relative Light Units,"0.50% DTAB, F12/DME + 10% FBS + ATP, 325 min",3793 relative light units
same,Average Relative Light Units,"0.50% DTAB, F12/DME + 10% HS + ATP, 0 min",88405 relative light units
same,Average Relative Light Units,"0.50% DTAB, F12/DME + 10% HS + ATP, 10 min",82645 relative light units
same,Average Relative Light Units,"0.50% DTAB, F12/DME + 10% HS + ATP, 30 min",70746 relative light units
same,Average Relative Light Units,"0.50% DTAB, F12/DME + 10% HS + ATP, 65 min",58749 relative light units
same,Average Relative Light Units,"0.50% DTAB, F12/DME + 10% HS + ATP, 120 min",44677 relative light units
same,Average Relative Light Units,"0.50% DTAB, F12/DME + 10% HS + ATP, 180 min",33353 relative light units
same,Average Relative Light Units,"0.50% DTAB, F12/DME + 10% HS + ATP, 325 min",17414 relative light units
same,Average Relative Light Units,"0.50% DTAB, RPMI + 10% FBS + ATP, 0 min",44179 relative light units
same,Average Relative Light Units,"0.50% DTAB, RPMI + 10% FBS + ATP, 10 min",43664 relative light units
same,Average Relative Light Units,"0.50% DTAB, RPMI + 10% FBS + ATP, 30 min",35909 relative light units
same,Average Relative Light Units,"0.50% DTAB, RPMI + 10% FBS + ATP, 65 min",26501 relative light units
same,Average Relative Light Units,"0.50% DTAB, RPMI + 10% FBS + ATP, 120 min",16951 relative light units
same,Average Relative Light Units,"0.50% DTAB, RPMI + 10% FBS + ATP, 180 min",10153 relative light units
same,Average Relative Light Units,"0.50% DTAB, RPMI + 10% FBS + ATP, 325 min",3268 relative light units
same,Average Relative Light Units,"0.55% DTAB, DMEM + 10% FBS + ATP, 0 min",52107 relative light units
same,Average Relative Light Units,"0.55% DTAB, DMEM + 10% FBS + ATP, 10 min",59799 relative light units
same,Average Relative Light Units,"0.55% DTAB, DMEM + 10% FBS + ATP, 30 min",51285 relative light units
same,Average Relative Light Units,"0.55% DTAB, DMEM + 10% FBS + ATP, 65 min",42155 relative light units
same,Average Relative Light Units,"0.55% DTAB, DMEM + 10% FBS + ATP, 120 min",32891 relative light units
same,Average Relative Light Units,"0.55% DTAB, DMEM + 10% FBS + ATP, 180 min",24137 relative light units
same,Average Relative Light Units,"0.55% DTAB, DMEM + 10% FBS + ATP, 325 min",12031 relative light units
same,Average Relative Light Units,"0.55% DTAB, F12/DME + 10% FBS + ATP, 0 min",6847 relative light units
same,Average Relative Light Units,"0.55% DTAB, F12/DME + 10% FBS + ATP, 10 min",6952 relative light units
same,Average Relative Light Units,"0.55% DTAB, F12/DME + 10% FBS + ATP, 30 min",6013 relative light units
same,Average Relative Light Units,"0.55% DTAB, F12/DME + 10% FBS + ATP, 65 min",5581 relative light units
same,Average Relative Light Units,"0.55% DTAB, F12/DME + 10% FBS + ATP, 120 min",4891 relative light units
same,Average Relative Light Units,"0.55% DTAB, F12/DME + 10% FBS + ATP, 180 min",4329 relative light units
same,Average Relative Light Units,"0.55% DTAB, F12/DME + 10% FBS + ATP, 325 min",3207 relative light units
same,Average Relative Light Units,"0.55% DTAB, F12/DME + 10% HS + ATP, 0 min",36615 relative light units
same,Average Relative Light Units,"0.55% DTAB, F12/DME + 10% HS + ATP, 10 min",36669 relative light units
same,Average Relative Light Units,"0.55% DTAB, F12/DME + 10% HS + ATP, 30 min",31348 relative light units
same,Average Relative Light Units,"0.55% DTAB, F12/DME + 10% HS + ATP, 65 min",27979 relative light units
same,Average Relative Light Units,"0.55% DTAB, F12/DME + 10% HS + ATP, 120 min",23778 relative light units
same,Average Relative Light Units,"0.55% DTAB, F12/DME + 10% HS + ATP, 180 min",19955 relative light units
same,Average Relative Light Units,"0.55% DTAB, F12/DME + 10% HS + ATP, 325 min",13539 relative light units
same,Average Relative Light Units,"0.55% DTAB, RPMI + 10% FBS + ATP, 0 min",21388 relative light units
same,Average Relative Light Units,"0.55% DTAB, RPMI + 10% FBS + ATP, 10 min",22863 relative light units
same,Average Relative Light Units,"0.55% DTAB, RPMI + 10% FBS + ATP, 30 min",19631 relative light units
same,Average Relative Light Units,"0.55% DTAB, RPMI + 10% FBS + ATP, 65 min",16848 relative light units
same,Average Relative Light Units,"0.55% DTAB, RPMI + 10% FBS + ATP, 120 min",12968 relative light units
same,Average Relative Light Units,"0.55% DTAB, RPMI + 10% FBS + ATP, 180 min",9661 relative light units
same,Average Relative Light Units,"0.55% DTAB, RPMI + 10% FBS + ATP, 325 min",5080 relative light units
